In series [1] the test system is androgen receptor. The class given is binding. The settings on record: Histoplasma.
The test system of series [2] is androgen receptor. In words: Androgen receptor inhibition, Pseudomonas testosteroni. The class given is binding. The settings on record: DHT:anti-androgen 1:1,000.
In series [3] the test system is estrogen receptor. In words: Estrogen receptor inhibition, Blastomyces. The class given is binding.
Series [4] concerns androgen receptor. In words: Androgen receptor inhibition, Blastomyces. The series is classed as binding.
Series [5] concerns progesterone receptor. In words: Progesterone receptor inhibition, Actinomyces. The class given is binding.
In series [6] the test system is estrogen receptor. In words: Estrogen receptor inhibition, Cryptococci. The class given is binding.
Series [7] relates to progesterone receptor. In words: Progesterone receptor inhibition, Fusarium calorum. The class given is binding. An excerpt: (§1) In the second series of experiments using the compound of the invention 2-(5-hydroxyhept-1-yl) bicyclo[3.3.0]octan-7-one {hexahydro-4-(5-hydroxyheptyl)-2-(1H)-pentalenone} upon zeralenone and zearalanol production, zearalenone and zearalanol were chemically obtained from Sigma Chemical Co., St. Louis, Mo.

A further series concerns fungal infections. In words: Efficacy studies and toxicity studies. From the text:
At the present time, therapies for fungal infections are not satisfactory and are frequently dangerous.

The subject of series [8] is androgen receptor. In words: Androgen receptor inhibition, Candida. The series is classed as binding.
The test system of series [9] is androgen receptor. In words: Androgen receptor inhibition, Fulsarium gravarium. The series is classed as binding.
Text: as §1

For series [10], the system named is progesterone receptor. In words: Progesterone receptor inhibition, Blastomyces. The class given is binding.
In series [11] the test system is estrogen receptor. In words: Estrogen receptor inhibition, Fulsarium gravarium. The series is classed as binding.
Text: as §1

Series [12] relates to estrogen receptor. In words: Fungal estrogen receptor inhibition, Fusarium. The class given is binding.
Series [13] deals with estrogen receptor. In words: Estrogen receptor inhibition, Norcardia. The series is classed as binding.
Series [14] relates to androgen binding sites in a melanoma. In words: Blocking of androgen binding sites in a melanoma. The settings on record: 1:1000 of dihydrotestosterone to the tested compound.
In series [15] the test system is estrogen receptor. In words: Effect on estrogen receptors in melanoma. The class given is binding. The settings on record: 1:1000 DHT to compound.
The test system of series [16] is progesterone receptor. In words: Effect on progesterone receptors in melanoma. The class given is binding. As to conditions: 1:1000 DHT to compound.
Series [17] has as its target T1, androgen receptor (Homo sapiens, UniProt P10275).
T1 sequence (P10275 1-920): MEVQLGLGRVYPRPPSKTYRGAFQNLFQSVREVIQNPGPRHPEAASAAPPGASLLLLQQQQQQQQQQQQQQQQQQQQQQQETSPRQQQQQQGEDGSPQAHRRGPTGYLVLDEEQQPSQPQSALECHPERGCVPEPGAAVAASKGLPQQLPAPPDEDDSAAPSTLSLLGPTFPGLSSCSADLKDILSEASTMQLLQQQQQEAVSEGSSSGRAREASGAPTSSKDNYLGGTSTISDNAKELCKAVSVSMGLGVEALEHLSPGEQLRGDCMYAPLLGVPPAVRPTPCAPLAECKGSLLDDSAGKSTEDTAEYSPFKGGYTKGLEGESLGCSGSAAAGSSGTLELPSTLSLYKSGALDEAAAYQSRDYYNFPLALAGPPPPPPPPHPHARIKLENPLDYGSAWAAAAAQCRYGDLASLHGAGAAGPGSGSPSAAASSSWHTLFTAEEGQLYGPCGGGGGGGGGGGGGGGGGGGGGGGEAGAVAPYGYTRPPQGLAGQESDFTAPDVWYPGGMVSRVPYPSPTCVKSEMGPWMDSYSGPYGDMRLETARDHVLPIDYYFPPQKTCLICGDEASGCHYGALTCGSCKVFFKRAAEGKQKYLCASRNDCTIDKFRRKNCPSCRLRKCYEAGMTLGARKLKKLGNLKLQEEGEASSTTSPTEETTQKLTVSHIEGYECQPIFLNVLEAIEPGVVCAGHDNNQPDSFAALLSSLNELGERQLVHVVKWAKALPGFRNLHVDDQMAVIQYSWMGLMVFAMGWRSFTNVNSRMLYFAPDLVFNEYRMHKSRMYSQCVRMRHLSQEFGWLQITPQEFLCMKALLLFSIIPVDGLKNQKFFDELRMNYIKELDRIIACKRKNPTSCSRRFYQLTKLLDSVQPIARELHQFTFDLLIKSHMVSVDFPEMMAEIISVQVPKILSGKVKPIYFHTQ
In words: Androgen receptor inhibition in skin/tissue fibroblast lines. The class given is cell-based. Set-up: The bald skin was used for androgen receptors using the second technique described above; from tissue; host or cells: bald scalp skin of hair transplantation volunteers. As to conditions: DHT:compound 1:1,000. Here is the method: (§2) Explants of both normal and keloid skin and tissue fibroblast lines were established.
(§3) Hormonal receptor analyses on these tissues were performed by the method of Griffith et al., Journal of Clinical Investigation, Vol. 57, page 1340 (1978).

Series [18] concerns the target T2, progesterone receptor (keloid cytosol) (Homo sapiens, UniProt P06401).
T2 construct: [3H]promegestone (R5020) tracer
In words: Keloid cytosol steroid binding assay, progesterone.

A further series deals with keloid. In words: Suppression of keloid formation. Set-up: species or system human.
The subject of series [19] is estrogen receptor. In words: Estrogen receptor inhibition in skin/tissue fibroblast lines. As to conditions: DHT:compound 1:1,000; for interference with / inhibition of estrogen receptors: more than 400 experiments. The series is classed as cell-based, human. Here is the method: as §2, §3
Another series has as its target T3, androgen receptor sites (Homo sapiens, UniProt P10275).
T3 construct: other tests of the document use human skin, keloid and fibroblasts with 3H-DHT
In words: Retarding collagen formation through blockage of androgen receptor sites. As to conditions: Example 53. How it is done: Accordingly, to treat arteriosclerosis, an oral dosage unit formulation is produced which contains 2 mg of 2-(5-methoxyhept-1-yl)bicyclo [3.3.0]octan-7-one {hexahydro-4-(5-methoxyheptyl)-2(1H)-pentalenone}, which is delivered to a subject once every six hours.

The subject of the next series is progesterone receptors. In words: Effect on progesterone receptors in breast capsule tissue. The series is classed as binding, human. As to conditions: breast capsule / hard band tissue. How it is done:
"Hard fibrous band" formation was retarded around breast implants following augmentation surgery.
The tissues were evaluated, with appropriate controls, for effects by the novel anti-androgen.

Where [20] appears, read: listed as 2-(5-methoxyhept-1-yl)bicyclo[3.3.0]octan-7-one.

Where “and” joins values, the source holds several entries; their conditions need not be identical. Identical values can stand only once. Entries after “also recorded” stand apart in the source; their conditions may differ. Like-named read-outs stand apart in the source and are kept apart here.

T2 sequence (P06401 whole entry): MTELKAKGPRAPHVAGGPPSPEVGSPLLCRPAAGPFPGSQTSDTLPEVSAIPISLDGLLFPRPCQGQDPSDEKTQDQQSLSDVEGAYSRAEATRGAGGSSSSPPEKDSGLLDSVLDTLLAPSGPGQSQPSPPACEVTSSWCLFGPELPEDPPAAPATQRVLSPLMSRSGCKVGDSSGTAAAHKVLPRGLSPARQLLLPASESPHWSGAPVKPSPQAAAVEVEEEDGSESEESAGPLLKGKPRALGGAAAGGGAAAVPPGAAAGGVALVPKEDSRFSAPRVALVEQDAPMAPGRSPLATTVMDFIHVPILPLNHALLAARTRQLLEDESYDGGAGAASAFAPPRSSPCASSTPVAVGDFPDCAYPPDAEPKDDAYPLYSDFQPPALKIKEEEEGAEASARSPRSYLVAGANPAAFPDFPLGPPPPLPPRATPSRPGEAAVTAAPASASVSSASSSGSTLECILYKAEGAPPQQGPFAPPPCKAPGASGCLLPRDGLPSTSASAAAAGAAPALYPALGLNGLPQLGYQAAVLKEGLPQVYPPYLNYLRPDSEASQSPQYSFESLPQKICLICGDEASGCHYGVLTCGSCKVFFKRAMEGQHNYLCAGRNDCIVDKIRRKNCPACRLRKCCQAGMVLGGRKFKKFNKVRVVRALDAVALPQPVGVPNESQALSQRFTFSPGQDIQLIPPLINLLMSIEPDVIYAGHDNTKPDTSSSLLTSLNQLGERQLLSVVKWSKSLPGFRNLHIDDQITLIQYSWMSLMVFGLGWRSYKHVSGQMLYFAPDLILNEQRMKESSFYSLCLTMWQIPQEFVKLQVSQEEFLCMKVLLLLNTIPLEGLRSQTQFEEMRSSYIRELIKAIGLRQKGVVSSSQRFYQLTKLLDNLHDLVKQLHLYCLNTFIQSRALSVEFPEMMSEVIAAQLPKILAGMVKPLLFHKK

For `CCC(O)CCCCC1CCC2CC(=O)CC12` (stereo not drawn) [Compound IV], the “% Androgen Receptor Inhibition” value in the series with androgen receptor [1] turned out to be 47%; in the series with androgen receptor [2] (strain 1) it was 90%; in the series with androgen receptor [2] (strain 2), 49%; with androgen receptor [2] (strain 3) it was 39%; in the series on androgen receptor [2] (strain 4) it was 63%; in the series on androgen receptor [4], 49%. The “% Androgen Receptor Inhibition” value in the series with androgen receptor [8] amounted to 92%; in the series on androgen receptor [9] (DHT:anti-androgen 1:1), 26%; with androgen receptor [9] (DHT:anti-androgen 1:10), 49%; in the series with androgen receptor [9] (DHT:anti-androgen 1:100), 67%; in the series with androgen receptor [9] (DHT:anti-androgen 1:1,000), 87%. Also, the “% Estrogen Receptor Inhibition” value with estrogen receptor [3], with estrogen receptor [6], with estrogen receptor [11] (DHT:anti-androgen 1:1), in the series on estrogen receptor [11] (DHT:anti-androgen 1:10), in the series with estrogen receptor [11] (DHT:anti-androgen 1:100) and in the series with estrogen receptor [11] (DHT:anti-androgen 1:1,000) was 0% each time. Moreover, the “% Estrogen Receptor Inhibition” value in the series with estrogen receptor [12] (fungal hormone Zeralanol), in the series on estrogen receptor [12] (fungal hormone Zeralenone) and with estrogen receptor [13] was 0% each time. Further, the “% Progesterone Receptor Inhibition” value is 0% in the series on progesterone receptor [5], 7% with progesterone receptor [7] (DHT:anti-androgen 1:1), 9% in the series with progesterone receptor [7] (DHT:anti-androgen 1:10) and 3% in the series with progesterone receptor [10]. Moreover, the efficacy studies entry with fungal infections is “efficacious”. In addition, the toxicity studies entry in the series with fungal infections was “safe”.
On to `CCC(CCCCC1CCC2CC(=O)CC12)OC` (stereo not drawn) [Compound V, 2-(5-Methoxyhept-1-yl)bicyclo[3.3.0]octan-7-one], for which, in [14], the “block of androgen binding sites in a melanoma” value is 59-80%. The “effect on estrogen receptors in melanoma tissue” value in the series on estrogen receptor [15] is recorded as “no significant effect”. In addition, the “effect on progesterone receptors in melanoma tissue” value in the series on progesterone receptor [16] was “no significant effect”. Further, the “% Androgen Receptor Inhibition” value was 22% at androgen receptor [17] (forearm); 72% and 41% on androgen receptor [17] (keloid). The “effect on binding of progesterone” value in series [18] is listed as “no effect”. In the series on keloid, the keloid formation entry is given as “suppression of keloid formation”. For the same compound, the figures for the “interference with / inhibition of estrogen receptors” value with estrogen receptor [19] and with estrogen receptor [19] (setting [20]) were “without significant interference” and “None of the tests showed any measurable estrogen receptor inhibition; also recorded: without significant interference”, respectively. Further, the “% Estrogen Receptor Inhibition” value is 0% in the series with estrogen receptor [19] (forearm); 0% with estrogen receptor [19] (keloid); “no measurable” with estrogen receptor [19] (keloid, listed as 2-(5-methoxyhept-1-yl)bicyclo[3.3.0]octan-7-one); 0% with estrogen receptor [19] (scalp). Further, the “retarding collagen formation through blockage of androgen receptor sites” value on androgen receptor sites is listed as “excellent results in retarding collagen formation through blockage of androgen receptor sites”. Besides, the “effect on progesterone receptors” value with progesterone receptors was “without any significant effects”; in the series on progesterone receptors (setting [20]), “no significant effects”.
